Active and inactive are the calls of the source. The calls are words filed in the database; no cut-off is given here.
Tests used:
Rattus norvegicus [1] = experiment: (§1) Protection against ischemia/reperfusion induecd Wistar rat intestinal injury model assessed as decrease in mucosal neutrophil infiltration at 30 mg/kg administered as bolus dose pretreated for 5 mins followed by 12 hrs reperfusion and subsequent compound addition at 10 mg/kg administered at 1 hr interval during reperfusion period by hematoxylin-eosin/trichrome/NADH-diaphorase staining based histopathological analysis; type: functional, organism-based
Mus musculus [2] = experiment: Anti-inflammatory activity in xylene induced ICR mouse ear edema model assessed as edema weight at 0.10 mmol/kg, po pretreated 30 mins followed by xylene challenge measured after 2 hrs (reference value: 4.07 +/- 0.51 mg); type: functional
HUVEC [3] = experiment: Protection against simulated ischemia/reperfusion injury induced mitochondrial oxidative damage in HUVEC assessed as decrease in mitochondrial reactive oxygen species level at 30 ug/ml pretreated for 12 hrs followed by compound washout and subsequent ischemia simulation for 2 hrs in presence of compound prior to 3 hrs reperfusion under drug free medium by MitoProbe based confocal microscopic analysis; type: functional, cell-based; conditions: Homo sapiens
Mus musculus [4] = experiment: Toxicity in mouse assessed as tail bleeding time at 0.50 mmol/kg, po administered 30 mins prior to tail transection measured every 30 secs (reference value: 120.5 +/- 7.9 sec); type: organism-based; conditions: in vivo
Rattus norvegicus [5] = experiment: Protection against ischemia/reperfusion-induced Wistar rat intestinal injury model assessed as reduction in lipid peroxidation by measuring lipid peroxide levels at 30 mg/kg administered as bolus dose pretreated for 5 mins followed by 12 hrs reperfusion and subsequent compound addition at 10 mg/kg administered at 1 hr interval during reperfusion period measured at 1.5 to 12 hrs post reperfusion by spectrophotometric method; type: functional, organism-based
Rattus norvegicus [6] = experiment: as §1, with “ischemia/reperfusion-induced” for “ischemia/reperfusion induecd”, “well-preserved glandular architecture” for “decrease in mucosal neutrophil infiltration”; type: functional, organism-based
Mus musculus [7] = experiment: Toxicity in mouse assessed as tail bleeding time at 0.50 mmol/kg, po administered 90 mins prior to tail transection measured every 30 secs (reference value: 119.3 +/- 7.7 sec); type: organism-based; conditions: in vivo
Mus musculus [8] = experiment: Toxicity in mouse assessed as tail bleeding time at 0.50 mmol/kg, po administered 45 mins prior to tail transection measured every 30 secs (reference value: 119.8 +/- 8.4 sec); type: organism-based; conditions: in vivo
Rattus norvegicus [9] = experiment: (§2) Protection against ischemia/reperfusion-induced Wistar rat intestinal injury model assessed as reduction in mitochondrial oxidative damage at 30 mg/kg administered as bolus dose pretreated for 5 mins followed by 12 hrs reperfusion and subsequent compound addition at 10 mg/kg administered at 1 hr interval during reperfusion period by Mitoprobe staining based assay; type: functional, organism-based
Rattus norvegicus [10] = experiment: as §1, with “induced” for “induecd”, “reduction” for “decrease”, “denudation of villous tips” for “mucosal neutrophil infiltration”, “treatment” for “addition”; type: functional, organism-based
HUVEC [11] = experiment: Protection against simulated ischemia/reperfusion injury-induced cell death in HUVEC assessed as increase in cell viability at 30 ug/ml treated for 12 hrs under normoxic condition prior to simulated ischemia for 2 hrs followed by compound washout measured 3 hrs post reperfusion; type: functional, cell-based; conditions: Homo sapiens
Mus musculus [12] = experiment: Anti-inflammatory activity in ICR mouse assessed as inhibition of xylene induced ear edema at 0.02 mmol/kg, po pretreated for 30 mins followed by xylene challenge measured after 2 hrs; type: functional, organism-based
Mus musculus [13] = experiment: Anti-inflammatory activity in ICR mouse assessed as inhibition of xylene induced ear edema at 0.10 mmol/kg pretreated orally for 30 mins followed by xylene challenge measured after 2 hrs relative to control; type: functional; conditions: po
Mus musculus [14] = experiment: Anti-inflammatory activity in ICR mouse assessed as inhibition of xylene induced ear edema pretreated orally for 30 mins followed by xylene challenge measured after 2 hrs; type: functional
HUVEC [15] = experiment: Protection against simulated ischemia and reperfusion injury induced mitochondrial oxidative damage in HUVEC assessed as reduction in cytochrome c release at 30 ug/ml treated for 12 hrs under normoxic condition prior to simulated ischemia for 2 hrs followed by compound washout measured 3 hrs post reperfusion by MitoProbe based immuno-fluorescence assay (reference value: 71.2 +/- 4.5%); type: functional, Homo sapiens; set-up: scale not given: the % may be the effect or the level left
Rattus norvegicus [16] = experiment: as §2, with “effect on TNFalpha levels” for “reduction in mitochondrial oxidative damage”, “ELISA (reference value: 62.9 +/- 8.7 pg/ml)” for “Mitoprobe staining based assay”; type: functional
HUVEC [17] = experiment: Protection against simulated ischemia/reperfusion injury induced mitochondrial oxidative damage in HUVEC assessed as increase in tubular mitochondrial cells at 30 ug/ml pretreated for 12 hrs followed by compound washout and subsequent ischemia simulation for 2 hrs in presence of compound prior to 3 hrs reperfusion under drug free medium by MitoProbe based confocal microscopic analysis; type: functional, cell-based; conditions: Homo sapiens
Mus musculus [18] = experiment: Toxicity in mouse assessed as tail bleeding time at 0.50 mmol/kg, po administered 60 mins prior to tail transection measured every 30 secs (reference value: 120.4 +/- 7.9 sec); type: organism-based; conditions: in vivo
Mus musculus [19] = experiment: Anti-inflammatory activity in ICR mouse assessed as inhibition of xylene induced ear edema at 20 mg/kg pretreated orally for 30 mins followed by xylene challenge measured after 2 hrs relative to control; type: functional; conditions: po
Mus musculus [20] = experiment: Anti-inflammatory activity in xylene induced ICR mouse ear edema model assessed as edema weight at 20 mg/kg, po pretreated 30 mins followed by xylene challenge measured after 2 hrs (reference value: 4.07 +/- 0.51 mg); type: functional

SMILES | Activity (Rattus norvegicus [1]) | Activity (Mus musculus [2]) | Activity (HUVEC [3]) | Time (Mus musculus [4]) | Activity (Rattus norvegicus [5]) | Activity (Rattus norvegicus [6]) | Time (Mus musculus [7]) | Time (Mus musculus [8]) | Activity (Rattus norvegicus [9]) | Activity (Rattus norvegicus [10]) | Activity (HUVEC [11]) | inhibition (Mus musculus [12]) | inhibition in vivo at 100 µmol/kg (Mus musculus [13]) | inhibition (Mus musculus [14]) | Activity (HUVEC [15]) | Activity (Rattus norvegicus [16]) | Activity (HUVEC [17]) | Time (Mus musculus [18]) | inhibition in vivo at 20 mg/kg (Mus musculus [19]) | Activity (Mus musculus [20])
CC1(C)CC(n2cc(CNC(=O)CC[C@@H](NC(=O)[C@@H]3Cc4c([nH]c5ccccc45)CN3C(=O)[C@@H]3Cc4c([nH]c5ccccc45)CN3)C(=O)NCc3cn(C4CC(C)(C)N([O])C(C)(C)C4)nn3)nn2)CC(C)(C)N1[O] | Active | 0.8 mg | Active | 116.6 s | Active | Active | 118.3 s | 117.1 s | Active | Active | Active | Active | 80.3% | Dose-dependent effect | 23.1% | 19 pg/mL | Active | 119 s | – | –
CC(=O)Oc1ccccc1C(=O)O [ASPIRIN] | – | – | – | – | – | – | – | – | – | – | – | – | – | – | – | – | – | – | 47.1% | 2.15 mg
CC1(C)CC(n2cc(CNC(=O)C[C@@H](NC(=O)[C@@H]3Cc4c([nH]c5ccccc45)CN3C(=O)[C@@H]3Cc4c([nH]c5ccccc45)CN3)C(=O)NCc3cn(C4CC(C)(C)N([O])C(C)(C)C4)nn3)nn2)CC(C)(C)N1[O] | – | 0.95 mg | Active | 116.3 s | Active | Active | 120.5 s | 118.2 s | – | Active | Active | Active | 76.7% | Dose-dependent effect | 29.8% | 21.7 pg/mL | Active | 119.3 s | – | –

Source: ChEMBL document CHEMBL4028817, “Indole-TEMPO conjugates alleviate ischemia-reperfusion injury via attenuation of oxidative stress and preservation of mitochondrial function” (Bioorg Med Chem, 2017)
